Measured values published in US20060263448A1, “Use of extracts from roots of pelargonium sidoides and pelargonium reniforme” (priority 2004, published 2006).

Test system: Mycobacterium ranae
Assay: Assay on anti-mycobacterial activity (suspension dilution method)
Type: cell-based
Conditions: M. ranae, 48 h at 37° C., visual evaluation of growth inhibition
Description: To assay the anti-mycobacterial efficacy, Mycobacterium ranae that represents a non-human pathogenic mycobacterium having a similar sensitivity against chemotherapeutic agents like M. tuberculosis was used. The suspension dilution method was used to determine the minimal inhibitory concentration (MHC). The extract of Pelargonium sidoides was solved in DMSO and serially diluted to obtain the required concentrations. Pelargonium extract or the solvent was added in a volume of 10 μl to 48-well microtiter plates containing 990 μl of an M. ranae suspension (ATCC 10) in a concentration of 1-5×10^5 CFU/ml Brain-Heart Infusion Broth (Difco, USA) per well. The maximum concentration of the solvent (DMSO) was 1%. Pelargonium extract was tested at concentrations between 100 and 0.03 μg/ml. All tests were carried out twice. The plates were incubated for 48 h at 37° C. and then the inhibition of the growth of the bacteria was evaluated visually.

## Gentamicin
  minimal inhibitory concentration (MHC): 0.3 µg/mL
